Laboratory results published in patent publication US10538561B2, “Peptide for treating inflammatory diseases” (priority 2015, dated 2020).
Marks after values point to notes of the source that are not given here.

What was measured:
[1] = system: Human Keratinocytes (HaCaT); test: Annexin-V assay; assay type: cell-based; settings: 48 h
Experimental: Cell lines: Human Keratinocytes (HaCaT); test Item (TI): IS181; Treatment regimen: treated twice (once after 24 hours)-48 hours; concentration range: 100 6 g/ml-5000 6 g/ml. […] (c) cells were treated with IS181 for 24 hours; (d) after 24 hours, cells were again treated with IS181 for 24 hours; (e) after 48 hours of first treatment, cells were stained with Annexin-V reagent and acquired on flow cytometer; (f) fold increase in apoptotic cells (early and late apoptotic) and necrotic cells was calculated with respect to untreated control cells. Positive control: Curcumin. […] (FIG. 4)

IL-1-β = test: LPS stimulated IL-1-β secretion in RAW264.7; assay type: cell-based, Mouse; settings: for IL-1-β % decrease with respect to LPS / IL-1-β Conc: RAW264.7 + LPS, 24 h
Experimental: Effect on pro-inflammatory cytokines against LPS stimulation: TNF-α; IL-6; IL-1-β: Cell lines: Murine macrophage cell line (RAW264.7); test item: IS181; experimental steps: pretreatment of cells with TI for 2 hours; stimulation with LPS (100 ng/ml) for 24 hours; supernatant collection for cytokine analysis; concentration range: o.1 μg/ml-500 μg/ml (duplicate wells); Cytokines: TNF-α; IL-6; IL-1-β; Method of estimating cytokines: ELISA; positive control: dexamethasone.
Cell line: RAW264.7 (Mouse macrophages); TI treatment regimen: Pretreatment for 2 h; TI Concentration range: 0.1 μg/ml-500 μg/ml (duplicate wells); LPS stimulation: 100 ng/ml; Time point for supernatants collection: 24 h; Method of estimation: ELISA; Positive control: Dexamethasone

IFN-γ = test: TNF-α stimulated IFN-γ secretion in HaCaT; assay type: cell-based, Human; set-up: IFN-γ Conc (μ/ml): unit not given here; settings: for IFN-γ % decrease with respect to TNF-α / IFN-γ Conc (μ/ml): HaCaT + TNF-α, 24 h
Experimental: Effect on pro-inflammatory cytokines against TNF-α/LPS+PMA stimulation: TNF-α; IFN-γ; TARC; TSLP; IL-6; IL-8: Cell lines: Human keratinocytes (HaCaT); test item (TI); IS181; experimental steps: pre-treatment of cells with TI for 2 hours; stimulation with TNF-α: 20 ng/ml; stimulation with LPS+PMA-10 μg/ml LPS+40 ng/ml PMA; supernatant collection for cytokine analysis after 24 hours; concentration range: 0.1 μg/ml-100 μg/ml (duplicate wells); cytokines: TNF-α; IFN-γ; TARC; TSLP; IL-6; IL-8. Method of estimating cytokines: ELISA; positive control: dexamethasone.
Cell line: HaCaT (Human Keratinocytes); TI Treatment regimen: Pretreatment for 2 h; TI Concentration range: 0.1 μg/ml-100 μg/ml (duplicate wells); TNF-α stimulation: 20 ng/ml; LPS+PMA stimulation: 10 μg/ml LPS+40 ng/ml PMA; Time point for supernatants collection: 24 h; Method of estimation: ELISA; Positive control: Dexamethasone

IL-17 = IL-17 secretion in ConA stimulated splenocytes; assay type: cell-based, mouse; set-up: inhibition of IL-17 secretion as compared to Control (ConA) levels: dose or concentration left out as unconfirmed; settings: for % Inhibition of IL-17 wrt Control (ConA) / Conc. of IL-17: splenocytes + ConA, 24 h
Experimental: Cell lines: mouse splenocytes; test item: IS181; treatment regimen: single addition—24 hours; concentration range: 10 μg/ml-5000 μg/ml.A) Identification of non-cytotoxic concentrations: splenocytes were treated with IS181 for 24 hours. Effect on cell viability was assessed by MTT assay. Concentrations leading to >75% cell viability were selected for IL-17 assay. B) IL-17 assay: splenocytes were treated with IS181 in presence of ConA stimulation for 24 hours. Supernatants were collected and stored at −20° C. till analysed. Levels of IL-17 were analysed in supernatants by ELISA. Percent inhibition of IL-17 secretion was calculated with reference to ConA treated levels. Positive control: curcumin.

PRKCA (PKC alpha) = PRKCA (PKC alpha) (Homo sapiens, UniProt P17252); test: Biochemical kinase assay PRKCA
Experimental: Test system: cell free assays; test items: IS181; concentrations tested: 1 ng/ml-5000 μg/ml; Kinases: a) Cell free assays: EGFR (ErbB1); FLT1 (VEGFR1); JAK1; JAK3 MAP2K1 (MEK1); PDGFRA (PDGFR alpha); PRKCA (PKC alpha); b) cell based assay: JAK-STAT.

[2] = Solution stability in diluents; assay type: physicochemical; settings: 24 hours
Experimental: The solution stability of peptide IS 181 was performed in four different diluents at three different temperatures for 24 hours. Four different pre-formulations of concentration 10 mg/ml were prepared and formulation assay was performed at initial and […] at room temperature.

H-WVQRVVEKFLK-OH [IS181, H-Trp-Val-Gln-Arg-Val-Val-Glu-Lys-Phe-Leu-Lys-OH]
increase in late apoptotic cells vs untreated ([1]; 2000 μg/ml): 2.1 fold | increase in necrotic cells vs untreated ([1]; 2000 μg/ml): 7.9 fold | increase in early apoptotic cells vs untreated ([1]; 5000 μg/ml): 2.3 fold | increase in late apoptotic cells vs untreated ([1]; 5000 μg/ml): 5.3 fold | increase in necrotic cells vs untreated ([1]; 5000 μg/ml): 4.5 fold | IL-1-β inhibition as compared to LPS stimulated levels (IL-1-β; RAW264.7): good extent of IL-1-β inhibition | IL-1-β % decrease with respect to LPS (IL-1-β; 0.1 μ/ml): 90.0% | IL-1-β Conc (IL-1-β; 0.1 μ/ml): 2.2 pg/mL | IL-1-β % decrease with respect to LPS (IL-1-β; 1 μ/ml): 30.3% | IL-1-β Conc (IL-1-β; 1 μ/ml): 15.4 pg/mL | IL-1-β % decrease with respect to LPS (IL-1-β; 5 μ/ml): 53.7% | IL-1-β Conc (IL-1-β; 5 μ/ml): 10.2 pg/mL | IL-1-β % decrease with respect to LPS (IL-1-β; 10 μ/ml): 71.9% | IL-1-β Conc (IL-1-β; 10 μ/ml): 6.2 pg/mL | IL-1-β % decrease with respect to LPS (IL-1-β; 100 μ/ml): 42.4% | IL-1-β Conc (IL-1-β; 100 μ/ml): 12.7 pg/mL | IL-1-β % decrease with respect to LPS (IL-1-β; 500 μ/ml): 72.6% | IL-1-β Conc (IL-1-β; 500 μ/ml): 6.1 pg/mL | decrease in IL-1-β level (IL-1-β; RAW264.7, 0.1 μg/ml-500 μg/ml): 30.3%-90% | IFN-γ secretion downregulated as compared to TNF-α stimulated cells (IFN-γ; 0.1 μg/ml-100): 27.1%-40.1% | IFN-γ inhibition (IFN-γ; HaCaT): good extent of IFN-γ and TARC inhibition | IFN-γ % decrease with respect to TNF-α (IFN-γ; 0.1 μg/ml): 35.6% | IFN-γ Conc (μ/ml) (IFN-γ; 0.1 μg/ml): 30.7*** | IFN-γ % decrease with respect to TNF-α (IFN-γ; 1 μg/ml): 36.7% | IFN-γ Conc (μ/ml) (IFN-γ; 1 μg/ml): 30.1*** | IFN-γ % decrease with respect to TNF-α (IFN-γ; 5 μg/ml): 40.1% | IFN-γ Conc (μ/ml) (IFN-γ; 5 μg/ml): 28.6*** | IFN-γ % decrease with respect to TNF-α (IFN-γ; 10 μg/ml): 27.1% | IFN-γ Conc (μ/ml) (IFN-γ; 10 μg/ml): 34.7*** | IFN-γ % decrease with respect to TNF-α (IFN-γ; 100 μg/ml): 32.0% | IFN-γ Conc (μ/ml) (IFN-γ; 100 μg/ml): 32.4*** | inhibition of IL-17 secretion as compared to Control (ConA) levels (IL-17; splenocytes): 48.2%-71.4% | % Inhibition of IL-17 wrt Control (ConA) (IL-17; 10 μg/ml): 71.4% | Conc. of IL-17 (IL-17; 10 μg/ml): 13.3 pg/mL | % Inhibition of IL-17 wrt Control (ConA) (IL-17; 50 μg/ml): 59.5% | Conc. of IL-17 (IL-17; 50 μg/ml): 18.8 pg/mL | % Inhibition of IL-17 wrt Control (ConA) (IL-17; 100 μg/ml): 62.1% | Conc. of IL-17 (IL-17; 100 μg/ml): 17.6 pg/mL | % Inhibition of IL-17 wrt Control (ConA) (IL-17; 500 μg/ml): 48.2% | Conc. of IL-17 (IL-17; 500 μg/ml): 24.1 pg/mL | % Inhibition of IL-17 wrt Control (ConA) (IL-17; 1000 μg/ml): 58.8% | Conc. of IL-17 (IL-17; 1000 μg/ml): 19.2 pg/mL | inhibition at 10 µg/mL (PRKCA (PKC alpha); 10 μg/ml): 20% | inhibition at 50 µg/mL (PRKCA (PKC alpha); cell free, 50 μg/ml): 20% | inhibition at 100 µg/mL (PRKCA (PKC alpha); cell free, 100 μg/ml): 8% | inhibition at 250 µg/mL (PRKCA (PKC alpha); cell free, 250 μg/ml): -8% | inhibition at 500 µg/mL (PRKCA (PKC alpha); cell free, 500 μg/ml): -17% | inhibition at 1000 µg/mL (PRKCA (PKC alpha); cell free, 1000 μg/ml): -19% | inhibition at 2000 µg/mL (PRKCA (PKC alpha); cell free, 2000 μg/ml): -80% | % Stability ([2]; 0.9% NaCl solution, 2-8° C.): 93.64% | % Stability ([2]; 0.9% NaCl solution, 37° C.): 104.94% | % Stability ([2]; 0.9% NaCl solution, Room Temperature): 101.84% | % Stability ([2]; Phosphate buffer pH 5.0, 2-8° C.): 96.53% | % Stability ([2]; Phosphate buffer pH 5.0, 37° C.): 104.05% | % Stability ([2]; Phosphate buffer pH 5.0, Room Temperature): 102.20% | % Stability ([2]; Phosphate buffer pH 7.4, 2-8° C.): 97.99% | % Stability ([2]; Phosphate buffer pH 7.4, 37° C.): 107.22% | % Stability ([2]; Phosphate buffer pH 7.4, Room Temperature): 102.41% | % Stability ([2]; Water, 2-8° C.): 94.66% | % Stability ([2]; Water, 37° C.): 98.57% | % Stability ([2]; Water, Room Temperature): 93.99%
